Where a SMILES comes first, the peptide text is derived from it. The star is where a group is joined. CH2Cl = ClC*
What was measured:
Design in all cases: recommended concentration 1 uM
[1] = biological target: T1, Caspase-8 (Homo sapiens, UniProt Q14790); test: (§1) Selectivity interaction (Enzymatic assay) EUB0002178aAD CASP8
[2] = biological target: T2, Caspase-7 (Homo sapiens, UniProt P55210); test: (§2) Selectivity interaction (Enzymatic assay) EUB0002178aAD CASP7
T2 sequence (P55210 whole entry): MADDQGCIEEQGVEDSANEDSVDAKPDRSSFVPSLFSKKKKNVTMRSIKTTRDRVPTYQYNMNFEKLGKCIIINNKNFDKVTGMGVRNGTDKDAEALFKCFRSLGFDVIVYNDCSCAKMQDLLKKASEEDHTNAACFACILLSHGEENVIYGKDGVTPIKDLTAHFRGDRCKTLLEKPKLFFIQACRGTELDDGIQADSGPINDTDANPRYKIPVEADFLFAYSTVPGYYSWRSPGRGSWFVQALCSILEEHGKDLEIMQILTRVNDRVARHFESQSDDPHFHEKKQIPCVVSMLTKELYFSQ

[3] = biological target: T2, Caspase-7; test: as §2; remark: listed apart in the source
[4] = biological target: T3, Caspase-9 (Homo sapiens, UniProt P55211); test: (§3) Selectivity interaction (Enzymatic assay) EUB0002178aAD CASP9
T3 sequence (P55211 whole entry): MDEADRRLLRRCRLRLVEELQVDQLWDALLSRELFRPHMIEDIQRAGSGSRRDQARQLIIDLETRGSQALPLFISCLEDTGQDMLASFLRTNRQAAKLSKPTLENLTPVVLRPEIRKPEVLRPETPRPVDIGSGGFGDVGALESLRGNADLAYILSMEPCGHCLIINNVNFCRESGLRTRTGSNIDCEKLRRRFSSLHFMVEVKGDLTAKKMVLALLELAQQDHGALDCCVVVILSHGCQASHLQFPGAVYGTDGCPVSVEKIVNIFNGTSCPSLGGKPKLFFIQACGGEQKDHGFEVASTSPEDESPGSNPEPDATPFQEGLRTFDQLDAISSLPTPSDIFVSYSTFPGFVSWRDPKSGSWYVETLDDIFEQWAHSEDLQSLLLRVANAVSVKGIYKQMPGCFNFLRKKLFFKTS

[5] = biological target: T3, Caspase-9; test: as §3; remark: listed apart in the source
[6] = biological target: T1, Caspase-8; test: as §1; remark: listed apart in the source
[7] = biological target: Caspase-2 (Homo sapiens, UniProt P42575); test: Selectivity interaction (Eurofins (enzymatic assay)) EUB0002201a CASP2
[8] = biological target: T3, Caspase-9; test: Selectivity interaction (Eurofins (enzymatic assay)) EUB0002201a CASP9
[9] = biological target: T4, Caspase-10 (Homo sapiens, UniProt Q92851); test: Selectivity interaction (Eurofins (enzymatic assay)) EUB0002201a CASP10
T4 sequence (Q92851 whole entry): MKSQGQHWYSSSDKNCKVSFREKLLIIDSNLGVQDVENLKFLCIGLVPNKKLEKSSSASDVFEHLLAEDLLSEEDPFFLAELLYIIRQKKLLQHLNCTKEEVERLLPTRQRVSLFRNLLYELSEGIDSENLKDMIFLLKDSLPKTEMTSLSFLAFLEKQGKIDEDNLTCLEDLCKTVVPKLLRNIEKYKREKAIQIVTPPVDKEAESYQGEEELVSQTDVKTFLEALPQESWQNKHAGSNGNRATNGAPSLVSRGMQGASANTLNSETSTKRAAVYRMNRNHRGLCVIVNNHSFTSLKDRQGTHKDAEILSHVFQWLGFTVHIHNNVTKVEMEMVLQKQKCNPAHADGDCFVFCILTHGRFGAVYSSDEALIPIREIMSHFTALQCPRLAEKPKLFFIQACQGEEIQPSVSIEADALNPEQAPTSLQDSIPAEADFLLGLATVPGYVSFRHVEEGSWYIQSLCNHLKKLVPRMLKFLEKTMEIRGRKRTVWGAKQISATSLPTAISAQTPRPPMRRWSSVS

[10] = biological target: Caspase-3 (Homo sapiens, UniProt P42574); test: Selectivity interaction (Eurofins (enzymatic assay)) EUB0002201a CASP3
[11] = biological target: T2, Caspase-7; test: Selectivity interaction (Eurofins (enzymatic assay)) EUB0002201a CASP7
[12] = biological target: Caspase-6 (Homo sapiens, UniProt P55212); test: Selectivity interaction (Eurofins (enzymatic assay)) EUB0002201a CASP6
[13] = biological target: T1, Caspase-8; test: Selectivity interaction (Eurofins (enzymatic assay)) EUB0002201a CASP8
[14] = biological target: T5, Caspase-5 (Homo sapiens, UniProt P51878); test: Selectivity interaction (Eurofins (enzymatic assay)) EUB0002201a CASP5
T5 sequence (P51878 whole entry): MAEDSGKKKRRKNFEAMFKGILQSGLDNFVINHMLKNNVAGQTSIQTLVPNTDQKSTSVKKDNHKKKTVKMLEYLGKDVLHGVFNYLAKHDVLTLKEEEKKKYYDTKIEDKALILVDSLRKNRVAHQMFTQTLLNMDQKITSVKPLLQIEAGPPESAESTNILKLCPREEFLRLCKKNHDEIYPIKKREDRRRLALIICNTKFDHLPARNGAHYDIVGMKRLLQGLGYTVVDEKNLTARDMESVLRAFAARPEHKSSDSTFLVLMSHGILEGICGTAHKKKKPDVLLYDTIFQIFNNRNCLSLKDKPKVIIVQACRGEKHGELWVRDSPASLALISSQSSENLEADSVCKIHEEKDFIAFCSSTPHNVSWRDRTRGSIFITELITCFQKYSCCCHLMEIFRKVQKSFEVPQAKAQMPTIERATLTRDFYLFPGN

[15] = biological target: N-lysine methyltransferase SMYD2 (Homo sapiens, UniProt Q9NRG4); test: Selectivity interaction (Enzymatic assay) EUB0002243aAD SMYD2
[16] = biological target: T5, Caspase-5; test: (§4) Selectivity interaction (Enzymatic assay) EUB0002176a CASP5
[17] = biological target: T5, Caspase-5; test: as §4; remark: listed apart in the source
[18] = biological target: T3, Caspase-9; test: Selectivity interaction (Enzymatic assay) EUB0002198aAD CASP9
[19] = biological target: Caspase-14 (Homo sapiens, UniProt P31944); test: Selectivity interaction (Enzymatic assay) EUB0002198aAD CASP14
[20] = biological target: T5, Caspase-5; test: Selectivity interaction (Enzymatic assay) EUB0002198aAD CASP5
[21] = biological target: T4, Caspase-10; test: (§5) Selectivity interaction (Enzymatic assay) EUB0002198aAD CASP10
[22] = biological target: T4, Caspase-10; test: as §5; remark: listed apart in the source
[23] = biological target: Caspase-4 (Homo sapiens, UniProt P49662); test: Selectivity interaction (Enzymatic assay) EUB0002198aAD CASP4
[24] = biological target: T4, Caspase-10; test: as §5; remark: listed apart in the source

T1 sequence (Q14790 217-374 limits assumed): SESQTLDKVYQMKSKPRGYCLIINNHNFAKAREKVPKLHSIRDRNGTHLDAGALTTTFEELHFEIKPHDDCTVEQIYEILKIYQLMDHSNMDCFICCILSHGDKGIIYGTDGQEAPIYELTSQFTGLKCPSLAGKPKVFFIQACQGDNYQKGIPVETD
T1 sequence (Q14790 385-479 limits assumed): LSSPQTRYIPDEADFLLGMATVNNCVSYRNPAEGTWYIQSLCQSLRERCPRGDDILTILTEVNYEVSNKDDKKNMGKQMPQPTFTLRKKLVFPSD
N-lysine methyltransferase SMYD2, sequence (Q9NRG4 whole entry): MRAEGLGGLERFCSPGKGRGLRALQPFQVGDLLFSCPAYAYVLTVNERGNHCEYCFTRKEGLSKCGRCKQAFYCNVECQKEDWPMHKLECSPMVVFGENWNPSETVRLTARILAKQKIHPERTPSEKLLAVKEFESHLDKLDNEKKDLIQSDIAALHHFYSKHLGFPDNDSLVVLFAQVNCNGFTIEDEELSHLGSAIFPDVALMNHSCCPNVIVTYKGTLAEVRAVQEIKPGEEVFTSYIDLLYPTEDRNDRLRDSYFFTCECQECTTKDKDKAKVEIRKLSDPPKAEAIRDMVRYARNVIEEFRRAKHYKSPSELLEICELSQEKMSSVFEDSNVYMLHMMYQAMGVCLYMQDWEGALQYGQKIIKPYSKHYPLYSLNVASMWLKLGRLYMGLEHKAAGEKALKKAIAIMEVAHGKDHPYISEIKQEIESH
Caspase-6, sequence (P55212 24-179 limits assumed): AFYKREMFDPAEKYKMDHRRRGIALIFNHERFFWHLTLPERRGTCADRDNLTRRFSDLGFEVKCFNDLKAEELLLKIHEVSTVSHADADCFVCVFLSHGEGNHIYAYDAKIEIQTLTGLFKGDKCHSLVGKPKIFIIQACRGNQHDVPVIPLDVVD
Caspase-6, sequence (P55212 194-293 limits assumed): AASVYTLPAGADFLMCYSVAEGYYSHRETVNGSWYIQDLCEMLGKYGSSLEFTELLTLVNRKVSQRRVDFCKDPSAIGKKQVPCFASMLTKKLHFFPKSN
Caspase-3, sequence (P42574 29-175 limits assumed): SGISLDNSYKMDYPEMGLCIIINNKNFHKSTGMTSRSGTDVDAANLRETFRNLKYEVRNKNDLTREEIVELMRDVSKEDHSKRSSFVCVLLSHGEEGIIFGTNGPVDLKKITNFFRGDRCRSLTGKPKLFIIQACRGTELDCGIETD
Caspase-3, sequence (P42574 176-277 limits assumed): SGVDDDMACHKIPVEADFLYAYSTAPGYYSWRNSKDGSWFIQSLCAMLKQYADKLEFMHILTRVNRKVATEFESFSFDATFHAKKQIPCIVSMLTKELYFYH
Caspase-4, sequence (P49662 81-270 limits assumed): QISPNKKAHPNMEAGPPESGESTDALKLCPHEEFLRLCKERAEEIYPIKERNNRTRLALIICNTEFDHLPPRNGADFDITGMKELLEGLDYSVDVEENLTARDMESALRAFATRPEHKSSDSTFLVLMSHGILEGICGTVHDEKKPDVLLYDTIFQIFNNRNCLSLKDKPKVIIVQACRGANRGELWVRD
Caspase-4, sequence (P49662 290-377 limits assumed): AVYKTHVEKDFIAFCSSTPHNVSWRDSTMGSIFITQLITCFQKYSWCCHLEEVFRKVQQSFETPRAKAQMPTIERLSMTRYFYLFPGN
Caspase-14, sequence (P31944 6-146 limits assumed): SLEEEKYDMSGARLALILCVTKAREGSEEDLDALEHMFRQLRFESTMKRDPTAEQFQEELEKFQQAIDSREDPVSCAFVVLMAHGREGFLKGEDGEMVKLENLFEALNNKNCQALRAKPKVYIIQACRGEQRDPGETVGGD
Caspase-14, sequence (P31944 153-242 limits assumed): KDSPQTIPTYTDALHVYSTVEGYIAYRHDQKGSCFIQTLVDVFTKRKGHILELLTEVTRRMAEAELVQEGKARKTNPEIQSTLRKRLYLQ
Caspase-2, sequence (P42575 170-325 limits assumed): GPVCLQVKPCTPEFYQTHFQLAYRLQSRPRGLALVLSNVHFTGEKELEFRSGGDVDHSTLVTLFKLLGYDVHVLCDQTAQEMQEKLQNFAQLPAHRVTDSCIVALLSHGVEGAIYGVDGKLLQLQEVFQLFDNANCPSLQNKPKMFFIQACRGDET
Caspase-2, sequence (P42575 334-452 limits assumed): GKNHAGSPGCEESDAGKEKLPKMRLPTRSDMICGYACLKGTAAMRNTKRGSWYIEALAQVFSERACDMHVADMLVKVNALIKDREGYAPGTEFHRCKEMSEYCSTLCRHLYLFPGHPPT

## CC[C@H](C)[C@H](NC(=O)[C@H](CCC(=O)O)NC(=O)[C@@H](NC(C)=O)C(C)C)C(=O)N[C@H](C=O)CC(=O)O (Ac-VEID-aldehyde)
[1]
  IC50: 0.026 µM
[2]
  IC50: 0.162 µM
[3]
  IC50: 0.162 µM
[4]
  IC50: 0.002 µM
[5]
  IC50: 0.002 µM
[6]
  IC50: 0.026 µM

## CC(=O)N[C@@H](CC(C)C)C(=O)N[C@@H](CCC(=O)O)C(=O)N[C@H](C(=O)N[C@H](C=O)CC(=O)O)C(C)C (Ac-LEVD-aldehyde)
[7]
  IC50: 1.7 µM
[8]
  IC50: 0.0021 µM
[9]
  IC50: 0.14 µM
[10]
  IC50: 0.057 µM
[11]
  IC50: 0.024 µM
[12]
  IC50: 0.057 µM
[13]
  IC50: 0.0033 µM
[14]
  IC50: 0.14 µM

## CN(C)CCCN(CC[C@H](N)C(=O)O)C[C@H]1O[C@@H](n2cnc3c(N)ncnc32)[C@H](O)[C@@H]1O
[15]
  Ki: 0.345 µM

## CC(=O)N[C@@H](Cc1ccccc1)C(=O)N[C@@H](CC(C)C)C(=O)N[C@H](C(=O)N[C@@H](CC(=O)O)C(=O)CCl)[C@@H](C)O (Ac-FLTD-CH2Cl)
[16]
  IC50: 0.329 µM
[17]
  IC50: 0.329 µM

## CC(=O)N[C@@H](CC(C)C)C(=O)N[C@@H](CCC(=O)O)C(=O)N[C@@H](Cc1cnc[nH]1)C(=O)N[C@H](C=O)CC(=O)O (Ac-LEHD-aldehyde)
[18]
  IC50: 0.0492 µM
[19]
  IC50: 0.134 µM
[20]
  IC50: 0.0213 µM
[21]
  IC50: 0.24 µM
[22]
  IC50: 0.24 µM
[23]
  IC50: 0.0817 µM
[24]
  IC50: 0.0404 µM
